The nature of test [1]: Binding affinity to PKAc.
Test [2] is described as follows: Binding affinity to PKG.
Test [3] is described as follows: Inhibition of catalytic subunit of PKA.
A short description of test [4]: Inhibition of PKC.

One may read the pKi as −log10 of the Ki, conventionally taken in molar units. Lower therefore signals a large Ki. By pIC50 is commonly meant the IC50 on a negative log10 scale, so that one unit is a factor of ten. High values mean a low IC50, low ones a high IC50.

SMILES strings stand for the structures. pIC50, pKi: −log10 of the molar value.

On to `NCCNS(=O)(=O)c1cccc2cnccc12`, for which the results for the negative-log Ki (pKi) in test [1] and in test [2] were 5.72 and 6.10, respectively.
For `N=C(N)NCCC[C@H](NC(=O)[C@H](CCCNC(=N)N)NC(=O)[C@H](CCCNC(=N)N)NC(=O)[C@H](CCCNC(=N)N)NC(=O)[C@H](CCCNC(=N)N)NC(=O)[C@H](CCCNC(=N)N)NC(=O)[C@H](CO)NC(=O)CCNCCNS(=O)(=O)c1cccc2cnccc12)C(N)=O`, the pIC50 in test [3] was 8.52; in test [4], 6.52.
